A short description of series [1]: Inhibition of human P-gp mediated [3H]vinblastine transport activity in human Caco-2 cells. The series is classed as cell-based. The note with it: Caco-2, 2 h. On the technique in general: Caco-2 cells form a polarised layer with tight junctions and transporters.
Series [2] is described as follows: (§1) Apparent permeability from apical to basolateral side of human Caco-2 cell membrane. In kind it is ADME, cell-based.
The target in series [3] is ATP-dependent translocase ABCB1 (Homo sapiens, UniProt P08183). Description: Activation of human P-gp ATPase in human Caco-2 cells at 100 uM. As to conditions: caco-2, 100 µM. In kind it is cell-based.
ATP-dependent translocase ABCB1, sequence (P08183 whole entry): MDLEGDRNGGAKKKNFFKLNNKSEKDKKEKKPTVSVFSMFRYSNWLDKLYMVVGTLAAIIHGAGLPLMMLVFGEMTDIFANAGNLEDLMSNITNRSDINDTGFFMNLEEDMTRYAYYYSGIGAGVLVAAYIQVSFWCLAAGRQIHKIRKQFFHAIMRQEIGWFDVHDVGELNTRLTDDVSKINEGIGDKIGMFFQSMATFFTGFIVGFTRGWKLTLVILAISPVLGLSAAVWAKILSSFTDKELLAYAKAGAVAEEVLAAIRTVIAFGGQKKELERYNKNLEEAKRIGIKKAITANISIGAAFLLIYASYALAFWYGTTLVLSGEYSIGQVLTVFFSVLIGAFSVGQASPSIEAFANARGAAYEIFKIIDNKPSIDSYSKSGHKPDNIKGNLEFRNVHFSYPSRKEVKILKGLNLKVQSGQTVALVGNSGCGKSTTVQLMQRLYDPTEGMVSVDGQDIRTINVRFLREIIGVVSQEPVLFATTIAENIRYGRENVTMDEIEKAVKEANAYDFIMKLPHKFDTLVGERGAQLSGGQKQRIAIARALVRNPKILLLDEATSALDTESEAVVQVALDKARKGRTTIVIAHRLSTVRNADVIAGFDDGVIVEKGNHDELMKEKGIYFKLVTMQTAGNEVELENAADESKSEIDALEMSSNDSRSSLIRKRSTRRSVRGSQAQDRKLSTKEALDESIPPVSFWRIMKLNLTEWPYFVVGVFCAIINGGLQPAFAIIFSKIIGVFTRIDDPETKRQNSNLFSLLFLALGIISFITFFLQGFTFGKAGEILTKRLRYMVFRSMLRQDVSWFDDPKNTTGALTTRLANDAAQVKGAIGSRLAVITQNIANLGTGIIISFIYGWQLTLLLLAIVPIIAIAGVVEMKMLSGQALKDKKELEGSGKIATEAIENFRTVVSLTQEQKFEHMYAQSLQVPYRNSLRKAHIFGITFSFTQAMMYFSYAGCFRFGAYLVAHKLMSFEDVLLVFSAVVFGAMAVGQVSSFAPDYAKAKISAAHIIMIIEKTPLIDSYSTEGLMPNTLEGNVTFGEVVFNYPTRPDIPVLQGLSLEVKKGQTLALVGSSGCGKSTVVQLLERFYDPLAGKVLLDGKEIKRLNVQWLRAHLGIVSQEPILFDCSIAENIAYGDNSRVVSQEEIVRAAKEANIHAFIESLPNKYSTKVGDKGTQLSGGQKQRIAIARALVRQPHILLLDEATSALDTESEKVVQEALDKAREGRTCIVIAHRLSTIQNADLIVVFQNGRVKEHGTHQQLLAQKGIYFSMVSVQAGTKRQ
Series [4] is described as follows: (§2) Apparent permeability from basolateral to apical side of human Caco-2 cell membrane. In kind it is ADME, cell-based.
The target in series [5] is T1, Broad substrate specificity ATP-binding cassette transporter ABCG2 (Homo sapiens, UniProt Q9UNQ0).
T1 sequence (Q9UNQ0 whole entry): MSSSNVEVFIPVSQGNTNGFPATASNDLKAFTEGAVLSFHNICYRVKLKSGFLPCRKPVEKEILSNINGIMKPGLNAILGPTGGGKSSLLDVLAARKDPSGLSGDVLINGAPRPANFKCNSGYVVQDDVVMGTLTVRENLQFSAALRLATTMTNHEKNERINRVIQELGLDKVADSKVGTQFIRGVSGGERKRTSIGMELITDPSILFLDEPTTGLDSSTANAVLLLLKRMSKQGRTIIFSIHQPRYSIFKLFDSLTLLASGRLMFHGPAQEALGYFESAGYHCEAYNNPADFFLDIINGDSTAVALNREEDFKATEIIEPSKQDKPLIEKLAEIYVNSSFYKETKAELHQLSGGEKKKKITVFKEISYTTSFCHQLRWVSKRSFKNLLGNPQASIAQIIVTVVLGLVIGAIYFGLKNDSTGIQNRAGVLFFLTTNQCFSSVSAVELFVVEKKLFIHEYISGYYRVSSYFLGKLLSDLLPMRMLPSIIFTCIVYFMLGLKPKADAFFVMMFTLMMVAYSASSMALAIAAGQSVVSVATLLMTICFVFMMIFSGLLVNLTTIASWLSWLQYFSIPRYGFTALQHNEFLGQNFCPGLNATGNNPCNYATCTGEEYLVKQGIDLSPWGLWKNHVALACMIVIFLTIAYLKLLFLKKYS
Description: Inhibition of human BCRP mediated [3H]mitoxantrone transport activity in human Caco-2 cells. The series is classed as cell-based.

Series [6] addresses T2, BCRP (ABCG2) (Homo sapiens, UniProt Q9UNQ0).
T2 sequence (Q9UNQ0 whole entry): T1 sequence (Q9UNQ0 whole entry)
Description: Inhibition of human BCRP mediated [3H]mitoxantrone transport activity in human Caco-2 cells at 100 uM. In kind it is cell-based. The note with it: Caco-2, probe [3H]mitoxantrone.

Series [7] relates to MCF7. Description: Antiproliferative activity against adriamycin resistant human MCF7 cells after 24 hrs by MTT assay. In kind it is functional, cell-based. Background: Tetrazolium assays rely on reduction of a dye to a coloured formazan, in cell work by metabolically active cells.
Series [8] deals with Caco-2. Described as §1. In kind it is ADME, cell-based.
For series [9], the system named is Caco-2. Description: Ratio of permeability from […] side of human Caco-2 cell membrane. The series is classed as ADME, cell-based.
Series [10] deals with Caco-2. The series is described as §2. In kind it is ADME, cell-based.
The nature of series [11]: Activity at P-pg.

Molecules are shown by their SMILES. The source made the active and inactive calls. No cut-off for these calls is given here.

As for `COc1cc2c(cc1OC)CN(Cc1cccc(-c3ccccc3)c1)CC2`, the EC50 in series [1] is 6.5 µM. Further, the Papp A→B in series [2] was 30.1 ×10⁻⁶ cm/s. Moreover, the Activity result in [3] is on record as “Not Active”. For the same compound, in [4], the Papp B→A stood at 366 ×10⁻⁶ cm/s.
In series [1], `COc1cc2c(cc1OC)CN(CC/C=C1\CCCc3c(OC)cccc31)CC2` yielded an EC50 of 1.64 µM. Also, the Activity entry in [3] is listed as “Not Active”; in [5] it was “Active”.
Regarding `COc1cc2c(cc1OC)CN(C(=O)c1ccc(-c3ccc(O)cc3)cc1)CC2`, the EC50 in series [1] came to 3.5 µM. For the same compound, the Papp A→B in series [2] was 28 ×10⁻⁶ cm/s. Moreover, the Activity entry in series [3] is listed as “Not Active”. Also, in [4], the Papp B→A was determined as 277 ×10⁻⁶ cm/s.
In the same order, the values of `COc1cc2c(cc1OC)CN(Cc1ccc3cc(O)ccc3c1)CC2` are 0.45 µM, 35.3 ×10⁻⁶ cm/s, 10% and 235 ×10⁻⁶ cm/s.
Turning to `COc1cc2c(cc1OC)CN(Cc1ccc(-c3ccc(O)cc3)cc1)CC2`, the EC50 in series [1] turned out to be 0.05 µM. Also, the inhibition at 100 µM in [6] was 19%. In addition, the Papp A→B in series [2] turned out to be 47.6 ×10⁻⁶ cm/s. Besides, in series [7], the outcome was inactive. For the same compound, the Activity result in [3] is given as “Not Active”. For the same compound, the Papp B→A in series [4] was determined as 60.9 ×10⁻⁶ cm/s.
The compound `COc1cc2c(cc1OC)CN(CCc1ccc(NC(=O)c3cccc4c(=O)c5cccc(OC)c5[nH]c34)cc1)CC2` returned an EC50 in [1] of 2 µM. The Activity result in series [3] is listed as “Not Active”.
In turn, `COc1cc2c(cc1OC)CN(C(=O)c1ccc3cc(O)ccc3c1)CC2` returned an EC50 in series [1] of 0.65 µM. Further, the Papp A→B in series [2] is 25.1 ×10⁻⁶ cm/s. Also, in series [3], the Activity is listed as 40%. In addition, the Papp B→A in [4] was found to be 190 ×10⁻⁶ cm/s.
For the compound `COc1cc2c(cc1OC)CN(C(=O)c1ccc(-c3ccccc3)cc1)CC2`, the EC50 in series [1] was 28 µM. For the same compound, in [2], the Papp A→B came to 60.1 ×10⁻⁶ cm/s. The compound further returned an Activity in series [3] of 35%. In addition, the Papp B→A in [4] is 244 ×10⁻⁶ cm/s.
The compound `COc1cc2c(cc1OC)CN(Cc1ccccc1-c1ccccc1)CC2` registered an EC50 in [1] of 15 µM. In addition, in series [2], the Papp A→B was 21.6 ×10⁻⁶ cm/s. For the same compound, the Activity entry in [3] is recorded as “Not Active”. The Papp B→A in [4] was 197 ×10⁻⁶ cm/s.
In turn, `COc1ccc2cc(C(=O)N3CCc4cc(OC)c(OC)cc4C3)ccc2c1` showed an EC50 in [1] of 18 µM. Further, the Papp A→B in series [2] was 19.3 ×10⁻⁶ cm/s. The Activity result in series [3] is recorded as “Not Active”. Besides, the Papp B→A in series [4] is 123 ×10⁻⁶ cm/s.
For the compound `COc1ccc2cc(CN3CCc4cc(OC)c(OC)cc4C3)ccc2c1`, the response in [1] was half-maximal at 0.3 µM (EC50). For the same compound, the values for the Papp in series [8] and in [10] were 18.7 ×10⁻⁶ cm/s and 67.7 ×10⁻⁶ cm/s, respectively. For the same compound, the Ratio in [9] is 3.6. Besides, the Activity entry in series [3] is recorded as “Not Active”.
Turning to `COc1cc2c(cc1OC)CN(Cc1ccc(-c3ccccc3)cc1)CC2`, in [1], the midpoint of the response, the EC50, lay at 0.1 µM. Besides, in [2], the Papp A→B was 77.7 ×10⁻⁶ cm/s. Moreover, in series [7], the result was inactive. Further, the Activity result in series [3] is “Not Active”. In series [4], the Papp B→A was found to be 141 ×10⁻⁶ cm/s.
Regarding `COc1cc2c(cc1OC)CN(C(=O)c1ccc3ccccc3c1)CC2`, a half-maximal response in [1] (EC50) required 20 µM. Moreover, in [2], the Papp A→B turned out to be 32.4 ×10⁻⁶ cm/s. The Activity in [3] is listed as 10%. In addition, the Papp B→A in series [4] is 415 ×10⁻⁶ cm/s.
As to `COc1cc2c(cc1OC)CN(Cc1ccc3ccccc3c1)CC2`, in [1], the EC50 stood at 0.8 µM. In series [2], the Papp A→B amounted to 21.6 ×10⁻⁶ cm/s. For the same compound, in [3], the Activity entry is given as “Not Active”. Also, in [4], the Papp B→A came out at 180 ×10⁻⁶ cm/s.
Regarding `COc1cccc2c1CCCC2CCCN1CCN(C2CCCCC2)CC1` (stereo not drawn), the half-maximal effective concentration (EC50) in series [11] was found to be 0.55 µM.

One may read the EC50 as the midpoint of the concentration-response curve. High values mean a need for much substance, low ones an effect from little substance. In general, Papp A→B refers to the apparent permeability from the apical to the basolateral side of a cell layer. Usually Papp B→A stands for the apparent permeability from the basolateral to the apical side of a cell layer. The inhibition is the change of the read-out against control, counted positive when it falls. Low values mean little suppression, high ones strong suppression. Usually Papp stands for a coefficient for how fast a substance crosses the barrier.

Values taken from ChEMBL document CHEMBL1144857, “4-Biphenyl and 2-naphthyl substituted 6,7-dimethoxytetrahydroisoquinoline derivatives as potent P-gp modulators” (Bioorg Med Chem, 2008).
